Measured values reported in PubChem BioAssay AID220 (DTP/NCI, 2004).
Records with an inconclusive call do not appear.

Test system: CD8F1 mice, subcutaneous mammary adenocarcinoma, T/C%
Test: NCI In Vivo Anticancer Drug Screen. Data for tumor model Mammary Adenocarcinoma CD8F1 (subcutaneous) in CD8F1
Settings: higher = larger tumour
Method in brief: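 Tumor-bearing mice, transplantable model; readout survival or tumor size; value = treated (T) / vehicle control (C).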

[1] = endpoint: median tumor weight change, dose: 125.0 mg/kg/injection, schedule: Q01DX001 (ip), vehicle: saline with Tween-80
[2] = endpoint: median tumor weight change, dose: 500.0 mg/kg/injection, schedule: Q01DX001 (ip), vehicle: saline with Tween-80

In the case of N#Cc1nc(C#N)c(Sc2ccccc2)c(Sc2ccccc2)c1Sc1ccccc1, the T/C (endpoint: median tumor weight (est.), dose: 6.25 mg/kg/injection, schedule: Q07DX005 (ip), vehicle: saline with Tween-80) is reported as 165 % of control and the T/C (endpoint: median tumor weight (est.), dose: 12.5 mg/kg/injection, schedule: Q07DX005 (ip), vehicle: saline with Tween-80) is reported as 113 % of control.

For CC(=O)NC(C=O)OCC=O (stereo unspecified), the T/C (endpoint: median tumor weight change, dose: 62.5 mg/kg/injection, schedule: Q01DX001 (ip), vehicle: water) was 85 % of control, the T/C (endpoint: median tumor weight change, dose: 125.0 mg/kg/injection, schedule: Q01DX001 (ip), vehicle: water) was 118 % of control and the T/C (endpoint: median tumor weight change, dose: 250.0 mg/kg/injection, schedule: Q01DX001 (ip), vehicle: water) was 118 % of control. The T/C (endpoint: median tumor weight change, dose: 500.0 mg/kg/injection, schedule: Q01DX001 (ip), vehicle: water) was 34 % of control.

In the case of CN1C(=O)C(=Cc2ccc(O)cc2)C(=O)N(C)C1=O, the T/C [1] is reported as 94 % of control and the T/C [2] is reported as 165 % of control.

For C=COC(=O)C(Cc1ccccc1)NC(=O)OCc1ccccc1 (stereo unspecified), the T/C (endpoint: median tumor weight change, dose: 62.5 mg/kg/injection, schedule: Q01DX001 (ip), vehicle: saline with Tween-80) was 103 % of control, the T/C [1] was 58 % of control and the T/C (endpoint: median tumor weight change, dose: 250.0 mg/kg/injection, schedule: Q01DX001 (ip), vehicle: saline with Tween-80) was 46 % of control. For the same compound, the T/C [2] was 33 % of control and the T/C (endpoint: median tumor weight change, dose: 1000.0 mg/kg/injection, schedule: Q01DX001 (ip), vehicle: saline with Tween-80) was 75 % of control.

With CC(=O)C(O)N1C(=O)C=CC1=O (stereo unspecified) the T/C (endpoint: median tumor weight (est.), dose: 0.62 mg/kg/injection, schedule: Q07DX005 (ip), vehicle: saline) was 78 % of control, the T/C (endpoint: median tumor weight (est.), dose: 1.25 mg/kg/injection, schedule: Q07DX005 (ip), vehicle: saline) was 74 % of control and the T/C (endpoint: median tumor weight (est.), dose: 2.5 mg/kg/injection, schedule: Q07DX005 (ip), vehicle: saline) was 77 % of control. The T/C (endpoint: median tumor weight (est.), dose: 5.0 mg/kg/injection, schedule: Q07DX005 (ip), vehicle: saline) was 50 % of control.

In the case of CC1=C(C)C(=O)O[C@@H]([C@](C)(O)[C@]2(O)CC[C@@]3(O)[C@@H]4C[C@H]5O[C@]56CC=CC(=O)[C@]6(C)[C@H]4CC[C@]23C)C1, the T/C (endpoint: median tumor weight change, dose: 25.0 mg/kg/injection, schedule: Q01DX001 (ip), vehicle: saline) is reported as 91 % of control, the T/C (endpoint: median tumor weight change, dose: 50.0 mg/kg/injection, schedule: Q01DX001 (ip), vehicle: saline) is reported as 98 % of control and the T/C (endpoint: median tumor weight change, dose: 200.0 mg/kg/injection, schedule: Q01DX001 (ip), vehicle: saline) is reported as 69 % of control. For the same compound, the T/C (endpoint: median tumor weight change, dose: 400.0 mg/kg/injection, schedule: Q01DX001 (ip), vehicle: saline) was 82 % of control.

In the case of COc1cc(NCCCCCCCNC(C)C)c2nccc(C)c2c1, the T/C (endpoint: median tumor weight change, dose: 31.25 mg/kg/injection, schedule: Q01DX001 (ip), vehicle: saline) is reported as 70 % of control and the T/C (endpoint: median tumor weight change, dose: 62.5 mg/kg/injection, schedule: Q01DX001 (ip), vehicle: saline) is reported as 72 % of control.

With C/C=C\C(C)=C/C(C)C(=O)CC(O)CC1CC(=O)NC(=O)C1 (stereo unspecified) the T/C (endpoint: median tumor weight change, dose: 50.0 mg/kg/injection, schedule: Q01DX001 (ip), vehicle: saline with Tween-80) was 66 % of control, the T/C (endpoint: median tumor weight change, dose: 56.0 mg/kg/injection, schedule: Q01DX001 (ip), vehicle: DMSO) was 58 % of control and the T/C (endpoint: median tumor weight change, dose: 100.0 mg/kg/injection, schedule: Q01DX001 (ip), vehicle: saline with Tween-80) was 66 % of control. For the same compound, the T/C (endpoint: median tumor weight change, dose: 112.0 mg/kg/injection, schedule: Q01DX001 (ip), vehicle: DMSO) was 60 % of control, the T/C (endpoint: median tumor weight change, dose: 200.0 mg/kg/injection, schedule: Q01DX001 (ip), vehicle: saline with Tween-80) was 73 % of control and the T/C (endpoint: median tumor weight change, dose: 225.0 mg/kg/injection, schedule: Q01DX001 (ip), vehicle: DMSO) was 77 % of control. For the same compound, the T/C (endpoint: median tumor weight change, dose: 400.0 mg/kg/injection, schedule: Q01DX001 (ip), vehicle: saline with Tween-80) was 98 % of control.

With CC(C)CCC[C@@H](C)[C@H]1CC[C@H]2[C@@H]3CC=C4C[C@@H](OC(=O)Cc5ccc(N(CCCl)CCCl)cc5)CC[C@]4(C)[C@H]3CC[C@]12C the T/C (endpoint: median tumor weight (est.), dose: 25.0 mg/kg/injection, schedule: Q07DX005 (ip), vehicle: Klucel (hydroxypropylcellulose) (HPC)) was 91 % of control, the T/C (endpoint: median tumor weight (est.), dose: 50.0 mg/kg/injection, schedule: Q07DX005 (ip), vehicle: Klucel (hydroxypropylcellulose) (HPC)) was 73 % of control and the T/C (endpoint: median tumor weight (est.), dose: 100.0 mg/kg/injection, schedule: Q07DX005 (ip), vehicle: Klucel (hydroxypropylcellulose) (HPC)) was 123 % of control. The T/C (endpoint: median tumor weight (est.), dose: 200.0 mg/kg/injection, schedule: Q07DX005 (ip), vehicle: Klucel (hydroxypropylcellulose) (HPC)) was 57 % of control, the T/C (endpoint: median tumor weight (est.), dose: 400.0 mg/kg/injection, schedule: Q07DX005 (ip), vehicle: Klucel (hydroxypropylcellulose) (HPC)) was 102 % of control and the T/C (endpoint: median tumor weight (est.), dose: 800.0 mg/kg/injection, schedule: Q07DX005 (ip), vehicle: Klucel (hydroxypropylcellulose) (HPC)) was 36 % of control.
